Where a SMILES comes first, the peptide text is derived from it. [ ]: non-standard residue; d: D form. Dmt = Cc1cc(O)cc(C)c1C[C@H](N)C(=O)O
Experiments:
Assay in all cases: SS-31 binding isotherms by endogenous 2′,6′-Dmt fluorescence (peptide and lipid titrations)
[1] = tested on: LUVs containing 20 mol % TOCL in a POPC background; settings: 20% TOCL/POPC LUVs, 20 mM HEPES-KOH pH 7.5, Scatchard and Langmuir fits of fluorescence isotherms
Text: (§1) The interaction of basic amphipathic peptides with negatively charged membranes depends on the electric field originating from the bilayer surface as well as specific electrostatic and hydrophobic interactions between the peptide and lipids (Fig. S2). The first objective of this study was to quantitatively evaluate the binding of SS-31 to model membranes with specific lipid composition. For spectroscopic analysis of SS-31 binding, we made use of the endogenous spectral properties of the 2′,6′-dimethyltyrosine (2′,6′-Dmt) side chain at the second position in the peptide. Our initial spectral characterization of SS-31 confirmed the feasibility of using endogenous peptide fluorescence to quantify peptide-membrane interactions (supporting Results A and B and Figs. S3 and S4). We therefore proceeded to measure the binding of SS-31 to large unilamellar vesicles (LUVs) containing anionic lipids in a host background of the zwitterionic lipid 1-palmitoyl-2-oleoyl-sn-glycero-3-phosphocholine (POPC, 16:0/18:1 PC). The anionic lipids included 1′,3′-bis[1,2-dioleoyl-sn-glycero-3-phospho]-glycerol (tetraoleoylcardiolipin (TOCL), all acyl chains 18:1), monolysocardiolipin (MLCL, all acyl chains 18:1), or 1-palmitoyl-2-oleoyl-sn-glycero-3-phosphoglycerol (POPG, 16:0/18:1 PG). Binding measurements were performed using two complementary approaches: (i) titration of fixed concentrations of LUVs with peptide and (ii) titration of fixed concentrations of peptide with LUVs (supporting Results C and Fig. S5). […]
(§2) Figure 2. […] A–C, fluorescence-based measurements. […] Statistical differences within each data set were determined relative to TOCL-containing membranes: •, p < 0.05; ••, p < 0.01.
(§3) To obtain equilibrium binding parameters n (the number of lipid molecules per peptide bound) and KD (the dissociation constant), we analyzed binding isotherm data by Scatchard analysis (Fig. 2C) and by fits of the data to Langmuir adsorption models (Equations S2 and S3 for peptide and lipid titrations, respectively). […]

[2] = tested on: LUVs containing 20 mol % MLCL in a POPC background; settings: 20% MLCL/POPC LUVs, 20 mM HEPES-KOH pH 7.5, Scatchard and Langmuir fits of fluorescence isotherms
Text: as §1, §2, §3

[3] = tested on: LUVs containing 20 mol % POPG in a POPC background; settings: 20% POPG/POPC LUVs, 20 mM HEPES-KOH pH 7.5, Scatchard and Langmuir fits of fluorescence isotherms
Text: as §1, §2, §3

Cc1cc(O)cc(C)c1C[C@H](NC(=O)[C@H](N)CCCNC(=N)N)C(=O)N[C@@H](CCCCN)C(=O)N[C@@H](Cc1ccccc1)C(N)=O [SS-31, D-Arg-2′6′-dimethyl-Tyr-Lys-Phe-NH2] (H-[dR][Dmt]KF-NH2)
n (number of lipid molecules per peptide bound), average lipid/peptide stoichiometry [1]: 6.9
n (number of lipid molecules per peptide bound), average lipid/peptide stoichiometry [2]: 7.4
n (number of lipid molecules per peptide bound), average lipid/peptide stoichiometry [3]: 15.4
